Test results published in ChEMBL document CHEMBL5537170, “Design, Synthesis, and Anti-Osteoporotic Characterization of Arginine N-Glycosylated Teriparatide Analogs via the Silver-catalyzed Solid-Phase Glycosylation Strategy” (J Med Chem, 2024).
Calls of active or inactive are those of the source. The calls are words filed in the database; no cut-off is given here. *1 amine or outer side, *2 acyl side, *3 side chain or, on linkers, in order; H or OH if unused. Where a SMILES comes first, the peptide text is derived from it. [ ]: non-standard residue; d: D form. X1 = N=C(NCCC[C@H](N[*:1])C(=O)[*:2])N[C@@H]1O[C@H](CO)[C@@H](O)[C@H](O)[C@H]1O

Assays:
[1] = Induction of osteoblast differentiation in C57BL/6 mouse Pre-Osteoblast cells assessed as fold increase in ephrinB2 protein expression at 50 nM measured after 72 hrs by Western blot analysis relative to control; type: functional
[2] = Induction of osteoblast differentiation in C57BL/6 mouse Pre-Osteoblast cells assessed as fold increase in ephrinB2 protein expression at 200 nM measured after 72 hrs by Western blot analysis relative to control; type: functional
[3] = Stability in human serum assessed as compound degradation at 1 mg/ml measured after 12 hrs by HPLC analysis; type: ADME, cell-free; details: read-out: Drug degradation
[4] = Cytotoxicity against C57BL/6 mouse Pre-Osteoblast cells assessed as cell death upto 5 uM incubated for 4 days by CCK-8 assay; type: toxicity, cell-based; details: 96 h, time 4 day
[5] = Induction of osteoblast differentiation in C57BL/6 mouse Pre-Osteoblast cells assessed as fold increase in ephrinB2 protein expression at 100 nM measured after 72 hrs by Western blot analysis relative to control; type: functional
[6] = test system: Pre-Osteoblast; assay: Induction of osteoblast differentiation in C57BL/6 mouse Pre-Osteoblast cells assessed as increase in ALP expression by measuring increase in ALP-positive cells with purple color at 50 nM measured after 2 days by ALP staining based analysis; type: functional, cell-based; details: time 2.0 day
[7] = test system: Mus musculus; assay: Anti-osteoporosis activity in ovariectomized C57BL/6J mouse model assessed as increase in trabecular number in femur at 20 microg/kg, sc administered 3 times a week for 8 weeks by micro-CT analysis; type: functional, organism-based; details: dose 20.0 µg/kg
[8] = test system: Pre-Osteoblast; assay: Induction of osteoblast differentiation in C57BL/6 mouse Pre-Osteoblast cells assessed as upregulation of Runx2 gene expression measured on day 4 and 7 by qPCR analysis; type: functional, cell-based; details: time 4-7 day
[9] = test system: Mus musculus; assay: Anti-osteoporosis activity in ovariectomized C57BL/6J mouse model assessed as increase in bone surface density in femur at 20 microg/kg, sc administered 3 times a week for 8 weeks by micro-CT analysis; type: functional, organism-based; details: dose 20.0 µg/kg
[10] = test system: Pre-Osteoblast; assay: Induction of osteoblast differentiation in C57BL/6 mouse Pre-Osteoblast cells assessed as upregulation of OCN gene expression measured on day 4 and 7 by qPCR analysis; type: functional, cell-based; details: time 4-7 day
[11] = test system: Pre-Osteoblast; assay: Induction of osteoblast differentiation in C57BL/6 mouse Pre-Osteoblast cells assessed as increase in bone mineralization by measuring increase in area of calcium nodules measured after 14 days by Alizarin Red S staining based analysis; type: functional, cell-based; details: time 14.0 day
[12] = Stability in human serum assessed as compound remaining at 1 mg/ml measured after 12 hrs by HPLC analysis; type: ADME, cell-free; details: read-out: Stability
[13] = test system: Pre-Osteoblast; assay: Induction of osteoblast differentiation in C57BL/6 mouse Pre-Osteoblast cells assessed as upregulation of ALP gene expression measured on day 4 and 7 by qPCR analysis; type: functional, cell-based; details: time 4-7 day
[14] = test system: Pre-Osteoblast; assay: Induction of osteoblast differentiation in C57BL/6 mouse Pre-Osteoblast cells assessed as increase in bone mineralization by measuring increase in red calcium nodules measured after 14 days by Alizarin Red S staining based analysis; type: functional, cell-based; details: time 14.0 day
[15] = test system: Mus musculus; assay: Anti-osteoporosis activity in ovariectomized C57BL/6J mouse model assessed as increase in bone volume percent in femur at 20 microg/kg, sc administered 3 times a week for 8 weeks by micro-CT analysis; type: functional, organism-based; details: dose 20.0 µg/kg

Row | SMILES | fold change (FC) [1] | fold change (FC) [2] | metabolised at 12 h, 1 mg/ml [3] | Activity [4] | fold change (FC) [5] | Activity [6] | Activity [7] | Activity [8] | Activity [9] | Activity [10] | Activity [11] | remaining at 12 h, 1 mg/ml [12] | Activity [13] | Activity [14] | Activity [15]
1 | CC[C@H](C)[C@H](NC(=O)[C@H](CCC(=O)O)NC(=O)[C@H](CO)NC(=O)[C@@H](NC(=O)[C@H](CO)NC(C)=O)C(C)C)C(=O)N[C@@H](CCC(N)=O)C(=O)N[C@@H](CC(C)C)C(=O)N[C@@H](CCSC)C(=O)N[C@@H](Cc1cnc[nH]1)C(=O)N[C@@H](CC(N)=O)C(=O)N[C@@H](CC(C)C)C(=O)NCC(=O)N[C@@H](CCCCN)C(=O)N[C@@H](Cc1cnc[nH]1)C(=O)N[C@@H](CC(C)C)C(=O)N[C@@H](CC(N)=O)C(=O)N[C@@H](CO)C(=O)N[C@@H](CCSC)C(=O)N[C@@H](CCC(=O)O)C(=O)N[C@@H](CCCNC(=N)N)C(=O)N[C@H](C(=O)N[C@@H](CCC(=O)O)C(=O)N[C@@H](Cc1c[nH]c2ccccc12)C(=O)N[C@@H](CC(C)C)C(=O)N[C@@H](CCCNC(=N)N)C(=O)N[C@@H](CCCCN)C(=O)N[C@@H](CCCCN)C(=O)N[C@@H](CC(C)C)C(=O)N[C@@H](CCC(N)=O)C(=O)N[C@@H](CC(=O)O)C(=O)N[C@H](C(=O)N[C@@H](Cc1cnc[nH]1)C(=O)N[C@@H](CC(N)=O)C(=O)N[C@@H](Cc1ccccc1)C(N)=O)C(C)C)C(C)C | 1.04 | 1.23 | > 50% | Non-Toxic | 1.05 | – | – | – | – | – | – | – | – | – | –
2 | CC[C@H](C)[C@H](NC(=O)[C@H](CCC(=O)O)NC(=O)[C@H](CO)NC(=O)[C@@H](NC(=O)[C@H](CO)NC(C)=O)C(C)C)C(=O)N[C@@H](CCC(N)=O)C(=O)N[C@@H](CC(C)C)C(=O)N[C@@H](CCSC)C(=O)N[C@@H](Cc1cnc[nH]1)C(=O)N[C@@H](CC(N)=O)C(=O)N[C@@H](CC(C)C)C(=O)NCC(=O)N[C@@H](CCCCN)C(=O)N[C@@H](Cc1cnc[nH]1)C(=O)N[C@@H](CC(C)C)C(=O)N[C@@H](CC(N)=O)C(=O)N[C@@H](CO)C(=O)N[C@@H](CCSC)C(=O)N[C@@H](CCC(=O)O)C(=O)N[C@@H](CCCNC(=N)N)C(=O)N[C@H](C(=O)N[C@@H](CCC(=O)O)C(=O)N[C@@H](Cc1c[nH]c2ccccc12)C(=O)N[C@@H](CC(C)C)C(=O)N[C@@H](CCCNC(=N)N[C@@H]1O[C@H](CO)[C@@H](O[C@H]2O[C@H](CO)[C@@H](O)[C@H](O)[C@H]2O)[C@H](O)[C@H]1O)C(=O)N[C@@H](CCCCN)C(=O)N[C@@H](CCCCN)C(=O)N[C@@H](CC(C)C)C(=O)N[C@@H](CCC(N)=O)C(=O)N[C@@H](CC(=O)O)C(=O)N[C@H](C(=O)N[C@@H](Cc1cnc[nH]1)C(=O)N[C@@H](CC(N)=O)C(=O)N[C@@H](Cc1ccccc1)C(N)=O)C(C)C)C(C)C | 1.16 | 1.32 | – | Non-Toxic | 1.34 | Active | Active | Active | Active | Active | Active | > 75% | Active | Active | Active
3 | CC[C@H](C)[C@H](NC(=O)[C@H](CCC(=O)O)NC(=O)[C@H](CO)NC(=O)[C@@H](NC(=O)[C@H](CO)NC(C)=O)C(C)C)C(=O)N[C@@H](CCC(N)=O)C(=O)N[C@@H](CC(C)C)C(=O)N[C@@H](CCSC)C(=O)N[C@@H](Cc1cnc[nH]1)C(=O)N[C@@H](CC(N)=O)C(=O)N[C@@H](CC(C)C)C(=O)NCC(=O)N[C@@H](CCCCN)C(=O)N[C@@H](Cc1cnc[nH]1)C(=O)N[C@@H](CC(C)C)C(=O)N[C@@H](CC(N)=O)C(=O)N[C@@H](CO)C(=O)N[C@@H](CCSC)C(=O)N[C@@H](CCC(=O)O)C(=O)N[C@@H](CCCNC(=N)N[C@@H]1OC[C@@H](O)[C@H](O)[C@H]1O)C(=O)N[C@H](C(=O)N[C@@H](CCC(=O)O)C(=O)N[C@@H](Cc1c[nH]c2ccccc12)C(=O)N[C@@H](CC(C)C)C(=O)N[C@@H](CCCNC(=N)N)C(=O)N[C@@H](CCCCN)C(=O)N[C@@H](CCCCN)C(=O)N[C@@H](CC(C)C)C(=O)N[C@@H](CCC(N)=O)C(=O)N[C@@H](CC(=O)O)C(=O)N[C@H](C(=O)N[C@@H](Cc1cnc[nH]1)C(=O)N[C@@H](CC(N)=O)C(=O)N[C@@H](Cc1ccccc1)C(N)=O)C(C)C)C(C)C | 1.04 | 1.29 | – | Non-Toxic | 1.28 | Active | Active | – | Active | – | Active | > 75% | – | Active | Active
4 | CC[C@H](C)[C@H](NC(=O)[C@H](CCC(=O)O)NC(=O)[C@H](CO)NC(=O)[C@@H](NC(=O)[C@H](CO)NC(C)=O)C(C)C)C(=O)N[C@@H](CCC(N)=O)C(=O)N[C@@H](CC(C)C)C(=O)N[C@@H](CCSC)C(=O)N[C@@H](Cc1cnc[nH]1)C(=O)N[C@@H](CC(N)=O)C(=O)N[C@@H](CC(C)C)C(=O)NCC(=O)N[C@@H](CCCCN)C(=O)N[C@@H](Cc1cnc[nH]1)C(=O)N[C@@H](CC(C)C)C(=O)N[C@@H](CC(N)=O)C(=O)N[C@@H](CO)C(=O)N[C@@H](CCSC)C(=O)N[C@@H](CCC(=O)O)C(=O)N[C@@H](CCCNC(=N)N[C@@H]1O[C@H](CO)[C@@H](O)[C@H](O)[C@H]1O)C(=O)N[C@H](C(=O)N[C@@H](CCC(=O)O)C(=O)N[C@@H](Cc1c[nH]c2ccccc12)C(=O)N[C@@H](CC(C)C)C(=O)N[C@@H](CCCNC(=N)N[C@@H]1O[C@H](CO)[C@@H](O)[C@H](O)[C@H]1O)C(=O)N[C@@H](CCCCN)C(=O)N[C@@H](CCCCN)C(=O)N[C@@H](CC(C)C)C(=O)N[C@@H](CCC(N)=O)C(=O)N[C@@H](CC(=O)O)C(=O)N[C@H](C(=O)N[C@@H](Cc1cnc[nH]1)C(=O)N[C@@H](CC(N)=O)C(=O)N[C@@H](Cc1ccccc1)C(N)=O)C(C)C)C(C)C (Ac-SVSEIQLMHNLGKHLNSME[X1]VEWL[X1]KKLQDVHNF-NH2) | – | – | – | Non-Toxic | – | – | – | – | – | – | – | – | – | – | –
